BigSolDB 2.1

CO[C@H]1/C=C/O[C@@]2(C)Oc3c(C)c(O)c4c(O)c(c(/C=N/N5CCN(C6CCCC6)CC5)c(O)c4c3C2=O)NC(=O)/C(C)=C\C=C\[C@H](C)[C@H](O)[C@@H](C)[C@@H](O)[C@@H](C)[C@H](OC(C)=O)[C@@H]1C
solubility (mole fraction)
Details | 278.15 K | 283.15 K | 288.15 K | 293.15 K | 297.15 K | 303.15 K | 308.15 K | 313.15 K | 318.15 K | 323.15 K
in acetone | 0.000523 | 0.00053 | 0.000536 | 0.000549 | 0.000563 | 0.000576 | 0.000609 | 0.000635 | 0.000668 | 0.000701
in chloroform | 0.0254 | 0.0265 | 0.0281 | 0.0287 | 0.0293 | 0.0299 | 0.0308 | 0.0316 | 0.0326 | 0.0334
in dichloromethane | 0.0159 | 0.0165 | 0.0175 | 0.0184 | 0.0196 | 0.0209 | 0.0224 | – | – | –
in ethanol | 0.000515 | 0.000525 | 0.000541 | 0.000562 | 0.000583 | 0.000604 | 0.000625 | 0.000651 | 0.000677 | 0.000703
in methanol | 0.022 | 0.0224 | 0.0229 | 0.0235 | 0.0242 | 0.0249 | 0.0257 | 0.0267 | 0.0278 | 0.029
